Where a name gives a salt, the structure may show the parent alone.
What was measured:
[1] = system: spontaneous hypertendus male rats of the Okamto strain; assay: Antihypertensive activity in spontaneously hypertensive rats, oral (tail arterial pressure); type: in vivo, rat; conditions: 50 mg/kg oral, hydrochloride form; for % Variation of arterial pressure 1 hour after administration: 1 h on first day; for % Variation of arterial pressure 4 hours after administration: 4 h on first day; for % Variation of arterial pressure, 10th day: 24 h after last administration
Description: The arterial pressure was measured before and after the said administration on the rat's tail with a pneumatic collar connected to an electronic translator of pressure and the results of Table II compare the initial arterial pressure with the arterial pressure 1,4 hours of the first day and 24 hours after the last administration.

[2] = system: male rats of the Sprague Dawley S.P.F. strain; assay: Hypotensive activity (carotid arterial pressure) in anesthetized rats, intravenous; type: in vivo, rat; conditions: 1 mg/kg i.v., hydrochloride form
Description: The hypotensive activity was determined on groups of male rats of the Sprague Dawley S.P.F. strain weighing about 300 g which had been anesthesized with an intraveinous administration of 50 mg/kg of nembutal. The test products in their hydrochloride form were administered intraveinously in the jugular vein and the carotidiene arterial pressure was measured before and after the said administration. The variations between the initial arterial pressure and the pressure after the administration was determined as well as the time of duration of the activity and the results are reported in Table I.

[3] = Acute toxicity (LD50) in mice, intraperitoneal; conditions: mouse, in vivo, ip, suspension in carboxymethyl cellulose, observed one week
Description: The acute toxicity of the products was determined on groups of 10 mice weighing between 18 and 22 g and the products were intraperitoneally administered in a suspension in carboxymethyl cellulose.

[4] = test was for 3 days administration

SMILES	% Variation of arterial pressure 1 hour after administration ([1]; 9 days administration) [%]	% Variation of arterial pressure 4 hours after administration ([1]; 9 days administration) [%]	% Variation of arterial pressure, 10th day ([1]; 9 days administration) [%]	% change in arterial pressure ([2]; at 5 min) [%]	% change in arterial pressure ([2]; at 60 min) [%]	LD50 at 168 h [3] [mg/kg]	% change in arterial pressure ([2]; at 1 min) [%]	% change in arterial pressure ([2]; at 15 min) [%]	% Variation of arterial pressure 1 hour after administration [1, 4] [%]	% Variation of arterial pressure 4 hours after administration [1, 4] [%]	% Variation of arterial pressure, 10th day [1, 4] [%]	% change in arterial pressure ([2]; at 10 min) [%]	% change in arterial pressure ([2]; at 30 min) [%]	% change in arterial pressure ([2]; at 45 min) [%]
O=C1Nc2ccccc2C1C1CCN(C[C@H](O)[C@H]2COc3ccccc3O2)CC1 (relative stereo) [Example 2, (dl) erythro 1,3-dihydro-3-{1-[2-(2,3-dihydro-1,4-benzodioxin-2-yl)-2-hydroxyethyl]-piperidin-4-yl}-2H-indol-2-one hydrochloride]	-23	-22	-9	-30	-20	~125								
O=C1Nc2ccccc2C1C1CCN(C[C@H](O)[C@@H]2COc3ccccc3O2)CC1 (relative stereo) [Example 3, (dl) threo 1,3-dihydro-3-{1-[2-(2,3-dihydro-1,4-benzodioxin-2-yl)-2-hydroxyethyl]-piperidin-4-yl}-2H-indol-2-one hydrochloride]						~125	-20	-10						
CN1C(=O)C(C2CCN(C[C@H](O)[C@H]3COc4ccccc4O3)CC2)c2ccccc21 (relative stereo) [Example 4, (dl) erythro 1,3-dihydro-3-{1-[2-(2,3-dihydro-1,4-benzodioxin-2-yl)-2-hydroxyethyl]-piperidin-4-yl}-1-methyl-2H-indol-2-one hydrochloride]				-23		~200	-28		-23	-31	-16	-26	-24	
Cl.O=C1Nc2ccccc2C1C1CCN(CC(O)C2COc3ccccc3O2)CC1 (centres unmarked) [Example 1, 3-{1-[2-(2,3-dihydro-1,4-benzodioxin-2-yl)-2-hydroxyethyl]-piperidin-4-yl}-1,3-dihydro-2H-indol-2-one hydrochloride]	-29	-27	-8			~150	-20							-10

Reference: patent US4224333A, “Antihypertensive 2H-indol-2-ones” (Roussel Uclaf, priority 1978, dated 1980)
